“Also recorded” adds a separate entry of the source.

For series [1], the system named is silicon wafer implants. As to conditions: 24 hours; cited from earlier work.
Series [2] deals with T1, Cx43 CT (Rattus norvegicus, UniProt P08050).
T1 construct: CT: amino acids 255 to 382) alone; GST (N); made in house; host or cells: E. coli BL21
The experiment in a line: Protein thermal shift assay, Cx43 CT. The series is classed as binding. As to conditions: 500 μg/ml protein, 25-100 μM peptide. The protocol:
(§1) Thermal stability of recombinant GST-PDZ2 or Cx43 CT in the presence or absence of peptides was determined in a 96-well format. Each assay well was composed of 500 μg/ml protein, 25-100 μM of each peptide in PBS buffer, pH7.4. All assays were performed independently six times. Samples were generally prepared in 96-well plates at final volumes of 20 μL. The fluorescent dye SYPRO Orange (5000× concentrate in DMSO, ThermoFisher, S6650) was added to a final concentration of 8X. Reactions were run on QuantStudio 6 Flex Real-Time PCR system (Applied Biosystems, part of Life Technologies Corporation, CA) according to the manufacturer's recommendations using a melt protocol in 0.05-degree/see increments from 25° C. to 95° C. The Reporter Dye was “ROX” and quencher Dye and passive reference were selected as “None” for the melt curve according to manufacturer's instructions. The data were analyzed using Protein Thermal Shift™ Software v1.3 package (Applied Biosystems, CA).

For series [3], the target named is T2, Cx43 CT-KK/QQ (Rattus norvegicus, UniProt P08050, K345Q/K346Q).
T2 construct: pGEX-6-P2 Cx43 CT amino acids 255-382; GST (N, cleaved yes); made in house; host or cells: E. coli BL21
The experiment in a line: Surface plasmon resonance, Cx43 CT-KK/QQ analyte. To be noted: biotin-peptide immobilized on streptavidin chip. The format is binding. The source says: Peptides were synthesized and quality checked for fidelity and purity using High Performance Liquid Chromatography and mass spectrometry (LifeTein, Hillsborough, NJ). Biotinylated peptides were designed for surface plasmon resonance experiments. Glutathione-S-Transferase (GST) fusion protein constructs composed of the Cx43-CT (pGEX-6-P2 Cx43 CT amino acids 255-382), ZO-1 PDZ1, PDZ2 and PDZ3 were isolated and purified from isopropyl-b-D-thiogalactoside (IPTG)-induced BL21 bacteria using standard procedures, described in references 13, 14, 20. The pGEX6p2-Cx43 CT plasmid was obtained from Prof. Paul L. Sorgen (University of Nebraska Medical Center, USA). Cx43 CT mutant (Cx43 CT-KK/QQ; amino acids Lys345 Lys346 to Gln 345 Gln 346) was developed by site-directed mutagenesis of the pGEX6p2-Cx43 CT plasmid (Agilent technologies, QuikChange II Site-Directed Mutagenesis Kit). The mutation was verified by sequencing. For surface plasmon resonance experiments, the GST was removed using PreScission protease, yielding Cx43 CT protein (wild-type or mutant).
(§2) Efficacy of the interaction of each alpha CT1 variant with Cx43 CT or Cx43 CT-KK/QQ was tested using surface plasmon resonance (SPR) as described previously 20. In brief, SPR experiments were performed using a Biacore T200 (GE Healthcare). Equal amounts (response units/RU) of biotin-alpha CT1 variants were immobilized on each flow cell of a streptavidin-coated sensor chip (Biacore Inc) using immobilization buffer (in mM: 10 HEPES, 1 EDTA, 100 NaCl, 0.005% Tween-20) at pH 7.4. Measurements with wild-type (wt) Cx43 CT and mutant Cx43 CT-KK/QQ analytes were done in running buffer (in mM: 10 HEPES, 100 NaCl, pH 7.4) at a flow rate of 30 μl/min. Binding of analytes were verified at different concentrations, in random order (injection volume 120 μl). Interacting proteins were then unbound by injection of […] regeneration buffer (50 mM NaOH and 1 M NaCl) at a flow rate of 10 μl/min. Background levels were obtained from a reference cell containing a biotin-control peptide in which the reversed sequence of the last 9 amino acids of Cx43 was fused to biotin-antennapedia. The RU values obtained with biotin-control peptide were subtracted from the RU values obtained with the different biotin-alphaCT1 variants (wild-type or mutant) to generate the different response curves.
For orientation: In SPR one partner is held on a chip, and binding of the other changes the refractive index at the surface.

The target of series [4] is T3, ZO-1 PDZ2 (Homo sapiens, UniProt Q07157).
T3 construct: the second of the three PDZ (PDZ2) domains of ZO-1; made in house; host or cells: E. coli BL21
T3 sequence (Q07157 186-264 limits assumed): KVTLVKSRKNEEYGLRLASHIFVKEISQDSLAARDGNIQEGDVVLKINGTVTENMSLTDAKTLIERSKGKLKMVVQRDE
Kind of series: Protein thermal shift assay, ZO-1 PDZ2. The format is binding. As to conditions: 500 μg/ml protein, 25-100 μM peptide. As for the experimental part:
as §1

Series [5] addresses T4, PKC-ε phosphorylation of Cx43-CT substrate at Ser368 (Rattus norvegicus, UniProt P08050).
T4 construct: substrate (Cx43-CT: amino acids 255 to 382); GST (N); made in house; host or cells: E. coli BL21 (Cx43 CT); PKC-ε purchased (Life, 37717L)
Kind of series: PKC-ε Cx43 CT S368 phosphorylation assay. The format is biochemical. As to conditions: peptides at 20 μM. The protocol:
PKC assay conditions were used to evaluate the PKC-ε phosphorylation of Cx43-CT substrate at Ser368 as we have described previously, with modifications 11. 400 ng/ml […] (Life, 37717L, Carlsbad, CA) was pre-diluted in enzyme dilution buffer (10 mM HEPES pH7.4, 0.01% CHAPS and 5 mM DTT) and assayed in 20 mM HEPES pH7.4, 10 mM/L MgCl2, 0.1 mM EGTA, 1× lipid mix (200 μg/ml phosphatidylserine (Avanti Polar Lipids 840032C),^20 μg/ml Diacylglycerol (Avanti Polar Lipids), 1 mM HEPES pH7.4, 0.03% CHAPS), 500 µM ATP (Sigma, A6419) and 14 μg/ml Cx43-CT substrate. Kinase assay buffer was supplemented with peptides to produce final concentrations of the reaction constituents, as indicated in figure legends. The mixture was incubated at 37° C. for 12 minutes and quenched by addition of LDS sample loading buffer (Bio Rad, 1610791). “XT sample buffer” is what was shown on the product label, whereas the component is similar as regular LDS buffer, containing about 5-10% lithium dodecyl sulphate. The reaction was Western blotted for pS368 Cx43 using the Phospho-Connexin43 (Ser368) antibody from Cell Signaling. Proteins were eluted off by stripping buffer (Millipore 2504) and re-probed for total Cx43 using the Sigma anti-rabbit antibody. Percent phosphorylation (% P) was quantified using Equation 1 and normalized with control group (PKC+, no peptide added).

Series [6] addresses T5, Cx43 CT (amino acids 255 to 382) (Rattus norvegicus, UniProt P08050).
T5 construct: Cx43-CT: amino acids 255 to 382; GST (N, cleaved yes); made in house; host or cells: E. coli BL21
Kind of series: Surface plasmon resonance, Cx43 CT analyte. The format is binding. To be noted: biotin-peptide immobilized on streptavidin chip; analyte 0.5 to 15 μM. As for the experimental part: as §2

In series [7] the test system is Cx43-Hela cells. Kind of series: Cx43 and ZO-1 immunofluorescent labeling. The series is classed as cell-based. To be noted: 10 μM for 2, 4, 24, or 48 hours. The protocol:
Given that the 10UM concentration of peptide was not toxic to cells, the inventors treated Cx43-Hela cells with 10 μM JM1 or JM2 for 2, 4, 24, or 48 hours followed by fixation and immunofluorescent labeling of Cx43 and ZO-1. Said peptides can be loaded into the provided EVs and can elicit results similar to those observed for naked peptide as follows. […] However, the most striking effects were on ZO-1 organization. In control cells ZO-1 localized to cell borders, often at sites of small, finger-like projections between the cells. Cytoplasmic ZO-1 was also notable. In JM-treated cells a strong contrast in the ratio of cell border to cytoplasmic ZO-1 was found, with relative levels at cell borders being increased over controls. […] There was also a noticeable increase in the number of cells per area of field, supporting the earlier observation that JM2 treated cells appeared to proliferate and survive at an increased rate.

Series [8] deals with Neonatal cardiac fibroblasts (NHFs). The experiment in a line: Collagen synthesis by neonatal cardiac fibroblasts, Western blotting. The series is classed as cell-based, rat. The source says:
Isolation and treatment of Neonatal Cardiac Fibroblasts with Cx43 based peptides (peptides used included ACT1, JM1, JM2, Antennapedia [ANT], reverse ACT1 [Rev], poly Arginine [poly r]). Said peptides with and without internalization vectors can be loaded into the provided EVs and can elicit results similar to those observed for naked peptide as follows. Neonatal cardiac fibroblasts (NHFs) were isolated from 3-4 day old rat hearts by collagenase digestion (100 U/mL) and differential attachment as previously described (Borg et ah, 1984). All cells were maintained in Dulbecco's Modified Eagle Medium (DMEM) supplemented with 10% Fetal Bovine Serum and 100 U/mL penicillin G and 100 μg/mL streptomycin and used prior to passage four. For experiments, 40,000 NHFs were plated into the wells of a 24-well tissue culture plate and grown for 24-48 hours. On the day of treatment, media was removed from each well and replaced with fresh media containing 50 μg/mL L-ascorbic acid-2-phosphate; Sigma Chemical Co., St. Louis, MO). The appropriate volume of each peptide (resuspended in sterile, deionized 18 MQ resistivity water) was added to achieve the desired final concentration (30, 90, 180 µM peptide concentrations were tested). Culture plates were incubated overnight in a 37° C. incubator with 5% C02.
Protein Isolation and Examination of Collagen Synthesis by Western Blotting. Conditioned culture media was collected from each well and stored at −20° C. for analysis of soluble collagen. Cellular protein, including insoluble collagen and collagen still within the NHFs, were isolated by adding 100-200 μL, of cell lysis buffer (0.01 M Tris, pH 7.4, 0.001 M Sodium Orthovanadate, 1% sodium dodecylsulfate [SDS]) to each well and incubating 10 minutes at room temperature. Prior to addition, cell lysis buffer was warmed to facilitate solubilization of SDS and 100 u L of Halt protease inhibitor (Pierce Biotechnology, Rockford, IL) was added per 10 mL buffer to be used. After incubation, the well bottoms were scraped and liquid transferred to a microcentrifuge tube for storage at −20° C. Protein concentrations of cell lysates were determined using a Micro BCA assay (Pierce). SDS-PAGE samples were prepared by combining either 10 μg of cell lysate or 30 μL of conditioned media with XT loading buffer (BioRad, Hercules, CA), dithiothreitol and boiled for five minutes. Samples were loaded onto 3-8% Tris-Acetate Criterion X T gels (BioRad, Hercules, CA) and proteins separated at 140V. After electrophoresis, proteins were transferred onto […] nitrocellulose membranes (BioRad) overnight at room temperature (Transfer buffer: 25 mM Tris, 192 mM Glycine, 20% Methanol, 0.01% SDS). The presence of collagen was determined by probing the membranes with a rabbit anti-mouse collagen type I antibody (MD Biosciences) at 1:20,000 dilution in blocking buffer (5% milk in Tris-buffered saline) followed by a goat anti-rabbit IgG horseradish peroxidase conjugated antibody at 1:100,000 (Southern Biotech Associates) and detection with Pierce SuperSignal Femto West detection reagent (Pierce). To assess the activity of JM1 and JM2 peptides with respect to collagen production and their potential in mediating wound healing, cardiac fibroblasts were treated with these two peptides and their effectiveness compared to that for the previous described Cx43 peptide ACT1. NHFs were treated with various concentrations of JM1, JM2, ACT1, and ANT (Antennapedia) peptides, vehicle (water) or left untreated and the production of collagen both in the culture media and cell-associated collagen assessed by western blotting. […] To evaluate the impact of the poly-Arginine (poly-r)N-terminal sequence on JM1 and Jm2 activity, NHF cells were treated with a poly-r peptide.
(In general: Immunoblotting shows a protein as a band on a membrane.)

For series [9], the system named is Cx43-HeLa. The series is classed as cell-based. As for the experimental part: The first tests of JM1 and JM2 were performed and the experiments centered on the basic cell biology of the peptides.

T5 sequence (P08050 255-382): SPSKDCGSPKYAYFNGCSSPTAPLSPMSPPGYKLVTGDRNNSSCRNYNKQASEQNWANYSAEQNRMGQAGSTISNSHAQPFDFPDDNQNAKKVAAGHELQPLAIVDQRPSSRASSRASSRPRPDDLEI
T1 sequence (P08050 255-382): as above
T4 sequence (P08050 255-382): as above
T2 sequence (P08050 255-382 K345Q/K346Q): as the sequence (P08050 255-382) above, with K91Q, K92Q counted along it

With `Nc1ncnc2c1ncn2[C@@H]1O[C@H](COP(=O)(O)OP(=O)(O)OP(=O)(O)O)[C@@H](O)[C@H]1O` [ATP], the inflammatory infiltrate entry in series [1] was “profound increase in inflammatory infiltrate; also recorded: more inflammatory infiltrate than the surgery alone”.

“RQPKIWFPNRRKPWKK RPRPAALEI (RQPKIWFPNRRKPWKKRPRPAALEI) [M2 AALEI]”: the “Cx43 CT melt temperature (Tm)” value in [2] is given as “no propensity to alter Cx43 CT thermal stability”. In [3], the “SPR binding to Cx43 CT-KK/QQ” value is recorded as “unable mediate interactions”. The “PDZ2 melt temperature (Tm)” value in series [4] was “did not alter the melt temperature of PDZ2”. Besides, in series [5], the “Cx43 S368 phosphorylation” value was “neither M1 AALAI (SEQ ID NO: 134), M2 AALEI (SEQ ID NO: 135) nor M3 DDLAI (SEQ ID NO: 136) increased Cx43 S368 phosphorylation”. Further, the “SPR binding to Cx43 CT” value in series [6] is recorded as “abrogated peptide interaction with Cx43 CT; also recorded: limited ability to bind Cx43 CT”.

Consider VFFKGVKDRV [JM1], for which the “Cx43 and ZO-1 localization” value in [7] is on record as “greater cytoplasmic Cx43 was observed; also recorded: ZO-1 cell border labeling was enhanced”. For the same molecule, the “mature type I collagen in conditioned media” value in series [8] (180 μM) is “no mature type I collagen was detected”; in [8] (30, 90, 180 µM), “dose-dependent decrease in the production of mature, type I collagen”. Moreover, the “collagen produced versus poly-r peptide” value in series [8] (about 90 μM) is on record as “less than half of that produced by cells treated with the poly-r peptide”. For the same molecule, the “mature type I collagen in cell lysate” value in series [8] (versus ACT1 peptide) is “more profound reduction in the amount of mature type I collagen”. In addition, the “toxicity (cell death)” value in series [9] is listed as “no obvious toxicity”. In series [1], the tissue reaction zone entry was “substantially narrower tissue reaction zone”.

Consider apyrase, for which the inflammatory infiltrate entry in series [1] is reported as “significantly reduced the inflammatory infiltrate”.

Source of the values: US20250221936A1, “ENGINEERED HEMICHANNELS, ENGINEERED VESICLES, AND USES THEREOF” (VIRGINIA TECH INTELLECTUAL PROPERTIES, INC., priority 2018, published 2025).
